Experimental data taken from ChEMBL document CHEMBL1148271, “3-(2-pyrrolidin-1-ylethyl)-5-(1,2,3,6-tetrahydropyridin-4-yl)-1H-indole derivatives as high affinity human 5-HT(1B/1D) ligands” (Bioorg Med Chem Lett, 2004).
pKi: −log10 of the molar value.

Assays:
[1] = biological target: 5-hydroxytryptamine receptor 1D (Homo sapiens, UniProt P28221); assay: Binding affinity was evaluated at the cloned human 5-hydroxytryptamine 1D receptor
[2] = biological target: Serotonin 1 receptors; 5-HT1B & 5-HT1D (Homo sapiens) (UniProt P28222+P28221); assay: Binding affinity ratio was evaluated (5-HT1B / 5-HT1D receptor); type: protein assay
[3] = biological target: 5-hydroxytryptamine receptor 1B (Homo sapiens, UniProt P28222); assay: Binding affinity was evaluated at the cloned human 5-hydroxytryptamine 1B receptor
5-hydroxytryptamine receptor 1B, sequence (P28222 whole entry): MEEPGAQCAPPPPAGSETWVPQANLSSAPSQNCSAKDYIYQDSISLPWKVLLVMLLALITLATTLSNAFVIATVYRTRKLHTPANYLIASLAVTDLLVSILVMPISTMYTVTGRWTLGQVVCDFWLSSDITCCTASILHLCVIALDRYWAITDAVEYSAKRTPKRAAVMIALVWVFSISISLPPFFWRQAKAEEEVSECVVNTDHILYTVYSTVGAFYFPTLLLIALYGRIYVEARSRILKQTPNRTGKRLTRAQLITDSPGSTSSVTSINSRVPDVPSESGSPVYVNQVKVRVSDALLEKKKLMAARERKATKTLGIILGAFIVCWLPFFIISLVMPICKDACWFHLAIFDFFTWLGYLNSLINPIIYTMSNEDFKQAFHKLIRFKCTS

5-hydroxytryptamine receptor 1D, sequence (P28221 whole entry): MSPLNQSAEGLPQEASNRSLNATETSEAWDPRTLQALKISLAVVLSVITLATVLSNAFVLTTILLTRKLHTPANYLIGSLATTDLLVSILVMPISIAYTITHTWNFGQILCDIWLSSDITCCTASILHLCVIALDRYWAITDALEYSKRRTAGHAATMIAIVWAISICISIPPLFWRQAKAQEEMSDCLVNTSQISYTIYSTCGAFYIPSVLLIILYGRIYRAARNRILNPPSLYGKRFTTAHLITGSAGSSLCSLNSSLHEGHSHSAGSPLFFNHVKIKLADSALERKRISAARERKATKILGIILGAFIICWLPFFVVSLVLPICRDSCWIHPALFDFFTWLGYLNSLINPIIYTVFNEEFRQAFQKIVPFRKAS

SMILES | pKi [1] | Ratio [2] | pKi [3]
Cc1ccc(S(=O)(=O)N2CC=C(c3ccc4[nH]cc(CCN5CCCC5)c4c3)CC2)cc1 | 7.92 | 12 | 6.85
O=S(=O)(c1ccc(Cl)cc1)N1CC=C(c2ccc3[nH]cc(CCN4CCCC4)c3c2)CC1 | 8.03 | 12 | 6.96
O=C(Nc1cccc2ccccc12)N1CC=C(c2ccc3[nH]cc(CCN4CCCC4)c3c2)CC1 | 8.06 | 7.6 | 7.19
CN(C)CCc1c[nH]c2ccc(C3=CCN(C)CC3)cc12 |  | 76 | 
O=S(=O)(c1ccccc1)N1CC=C(c2ccc3[nH]cc(CCN4CCCC4)c3c2)CC1 | 7.68 | 21 | 6.36
COc1ccc(NC(=S)N2CC=C(c3ccc4[nH]cc(CCN5CCCC5)c4c3)CC2)cc1 | 8.21 | 9.3 | 7.24
C1=C(c2ccc3[nH]cc(CCN4CCCC4)c3c2)CCNC1 | 7.13 | 10 | 6.12

Results, then the compound that gave them:

pKi [1] | Ratio [2] | pKi [3] | SMILES
7.54 | 5.9 | 6.77 | S=C(NC12CC3CC(CC(C3)C1)C2)N1CC=C(c2ccc3[nH]cc(CCN4CCCC4)c3c2)CC1
7.57 | 15 | 6.39 | O=S(=O)(c1cccc2ccccc12)N1CC=C(c2ccc3[nH]cc(CCN4CCCC4)c3c2)CC1
7.96 | 13 | 6.85 | COc1ccc(S(=O)(=O)N2CC=C(c3ccc4[nH]cc(CCN5CCCC5)c4c3)CC2)cc1
7.54 | 2.2 | 7.19 | O=C(NC12CC3CC(CC(C3)C1)C2)N1CC=C(c2ccc3[nH]cc(CCN4CCCC4)c3c2)CC1
8.11 | 5.6 | 7.36 | COc1ccc(NC(=O)N2CC=C(c3ccc4[nH]cc(CCN5CCCC5)c4c3)CC2)cc1
